Our source for the Ki values is patent publication US9428492B2, “Secondary alcohol substituted triazoles as PDE10 inhibitors” (Merck Sharp & Dohme Corp., priority 2012, dated 2016).

Chain of human PDE10A2 (Q9Y233 267-1055): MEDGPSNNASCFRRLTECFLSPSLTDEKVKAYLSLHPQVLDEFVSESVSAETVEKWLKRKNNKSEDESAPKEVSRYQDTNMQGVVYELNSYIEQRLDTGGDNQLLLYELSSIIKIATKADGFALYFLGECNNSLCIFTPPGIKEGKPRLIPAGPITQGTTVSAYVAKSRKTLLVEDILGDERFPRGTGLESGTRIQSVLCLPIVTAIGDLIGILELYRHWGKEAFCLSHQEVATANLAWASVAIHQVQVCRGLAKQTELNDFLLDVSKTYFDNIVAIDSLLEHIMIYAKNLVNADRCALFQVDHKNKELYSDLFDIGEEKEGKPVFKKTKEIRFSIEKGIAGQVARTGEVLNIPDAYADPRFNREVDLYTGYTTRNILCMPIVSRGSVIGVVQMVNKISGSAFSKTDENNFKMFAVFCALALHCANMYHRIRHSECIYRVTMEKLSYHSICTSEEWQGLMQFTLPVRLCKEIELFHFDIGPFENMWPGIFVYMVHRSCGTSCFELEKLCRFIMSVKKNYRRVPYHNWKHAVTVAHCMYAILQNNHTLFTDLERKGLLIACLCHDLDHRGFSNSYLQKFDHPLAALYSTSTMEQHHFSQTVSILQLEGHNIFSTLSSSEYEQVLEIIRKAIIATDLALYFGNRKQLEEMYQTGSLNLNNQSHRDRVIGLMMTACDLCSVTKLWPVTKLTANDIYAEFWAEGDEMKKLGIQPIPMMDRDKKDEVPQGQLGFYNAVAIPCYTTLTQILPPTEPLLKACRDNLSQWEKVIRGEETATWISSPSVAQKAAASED

This assay concerns the target human PDE10A2 (Homo sapiens (Human), UniProt Q9Y233). Nature of the assay: PDE10 fluorescence polarization (IMAP FP) inhibition assay. The settings on record: read-out: PDE10a Ki. Format: biochemical. The protocol: The activity of the compounds in accordance with the present invention as PDE10 inhibitors may be readily determined without undue experimentation using a fluorescence polarization (FP) methodology that is well known in the art (Huang, W., et al., J. Biomol Screen, 2002, 7: 215).
In a typical experiment the PDE10 inhibitory activity of the compounds of the present invention was determined in accordance with the following experimental method. PDE10A2 was amplified from human fetal brain cDNA (Clontech, Mountain View, Calif.) using a forward primer corresponding to nucleotides 56-77 of human PDE10A2 (Accession No. AF127480, Genbank Identifier 4894716), containing a Kozak consensus sequence, and a reverse primer corresponding to nucleotides 2406-2413 of human PDE10A2 (Accession No. AF127480, Genbank Identifier 4894716). Amplification with Easy-A polymerase (Stratagene, La Jolla, Calif.) was 95° C. for 2 minutes followed by thirty three cycles of 95° C. for 40 seconds, 55° C. for 30 seconds, and 72° C. for 2 minutes 48 seconds. Final extension was 72° C. for 7 minutes. The PCR product was TA cloned into pcDNA3.2-TOPO (Invitrogen, Carlsbad, Calif.) according to standard protocol. AD293 cells with 70-80% confluency were transiently transfected with human PDE10A2/pcDNA3.2-TOPO using Lipofectamine 2000 according to manufacturer specifications (Invitrogen, Carlsbad, Calif.). Cells were harvested 48 hours post-transfection and lysed by sonication (setting 3, 10×5 sec pulses) in a buffer containing 20 mM HEPES, 1 mM EDTA and protease inhibitor cocktail (Roche). Lysate was collected by centrifugation at 75,000×g for 20 minutes. Supernatant containing the cytoplasmic fraction was used for evaluation of PDE10A2 activity. The fluorescence polarization assay for cyclic nucleotide phosphodiesterases was performed using an IMAP® FP kit supplied by Molecular Devices, Sunnyvale, Calif. (product # R8139). IMAP® technology has been applied previously to phosphodiesterase assays (Huang, W., et al., J. Biomol Screen, 2002, 7: 215). Assays were performed at room temperature in 384-well microtiter plates with an incubation volume of 20.2 μL. Solutions of test compounds were prepared in DMSO and serially diluted with DMSO to yield 8 μL of each of 10 solutions differing by 3-fold in concentration, at 32 serial dilutions per plate. […] 0% of inhibition is determined by using DMSO (1% final concentrations).
A Labcyte Echo 555 (Labcyte, Sunnyvale, Calif.) is used to dispense 200 nL from each well of the titration plate to the 384 well assay plate. A solution of enzyme (1/1600 dilution from aliquots; sufficient to produce 20% substrate conversion) and a separate solution of FAM-labeled cAMP PDE from Molecular Devices (product # R7506), at a final concentration of 50 nM are made in the assay buffer (10 mM Tris HCl, pH 7.2, 10 mM MgCl2, 0.05% NaN3 0.01% Tween-20, and 1 mM DTT). The enzyme and the substrate are then added to the assay plates in two consecutive additions of 10 μL, and then shaken to mix. The reaction is allowed to proceed at room temperature for 30 minutes. […] The enzymatic reaction is stopped by addition of 60 μL of the binding solution to each well of the assay plates and the plates are sealed and shaken for 10 seconds. The plate was incubated at room temperature for at least one hour prior to determining the fluorescence polarization (FP). The parallel and perpendicular fluorescence of each well of the plate was measured using a Perkin Elmer EnVision™ plate reader (Waltham, Mass.).
Fluorescence polarization (mP) was calculated from the parallel (S) and perpendicular (P) fluorescence of each sample well and the analogous values for the median control well, containing only substrate (So and Po), using the following equation: Polarization (mP)=1000*(S/So−P/Po)/(S/So+P/Po).
Dose-inhibition profiles for each compound were characterized by fitting the mP data to a four-parameter equation given below.
For orientation: In fluorescence polarisation assays a small probe gives low polarisation when free and higher when bound to something large.
One may read the Ki as a measure of affinity in units of concentration, obtained from inhibition or displacement. Turning to `Cc1nc(N2CC(c3nc4ccccc4n3C)C2)cc(-n2nc(C)nc2C(O)C(C)C)n1` (single isomer, unassigned) [Example 5b, 2-methyl-1-(3-methyl-1-(2-methyl-6-(3-(1-methyl-1H-benzo[d]imidazol-2-yl)azetidin-1-yl)pyrimidin-4-yl)-1H-1,2,4-triazol-5-yl)propan-1-ol], the Ki was found to be 0.77 nM.

Consider `Cc1nc(C(C)O)n(-c2cc(N3CC(c4nc5ccccc5n4C)C3)nc(C3CC3)n2)n1` (centres unmarked) [Example 10, 1-(1-(2-cyclopropyl-6-(3-(1-methyl-1H-benzo[d]imidazol-2-yl)azetidin-1-yl)pyrimidin-4-yl)-3-methyl-1H-1,2,4-triazol-5-yl)ethanol], for which the Ki stood at 0.21 nM.

Consider `Cc1nc(C(C)O)n(-c2cc(N3CC(c4nc5ccccc5n4C)C3)nc(C3CC3)n2)n1` (single isomer, unassigned) [Example 10a, 1-(1-(2-cyclopropyl-6-(3-(1-methyl-1H-benzo[d]imidazol-2-yl)azetidin-1-yl)pyrimidin-4-yl)-3-methyl-1H-1,2,4-triazol-5-yl)ethanol], for which the Ki worked out at 0.13 nM.

With `Cc1nc(N2CC(c3nc4ccccc4n3C)C2)cc(-n2nc(C)nc2C(O)C(F)F)n1` (single isomer, unassigned) [Example 11b, 2,2-difluoro-1-(3-methyl-1-(2-methyl-6-(3-(1-methyl-1H-benzo[d]imidazol-2-yl)azetidin-1-yl)pyrimidin-4-yl)-1H-1,2,4-triazol-5-yl)ethanol], the inhibition constant (Ki) came to 3 nM.

Take `Cc1nc(N2CC(c3nc4ccccc4n3C)C2)cc(-n2nc(C)nc2C(O)C(F)(F)F)n1` (single isomer, unassigned) [Example 3a, 2,2,2-trifluoro-1-(3-methyl-1-(2-methyl-6-(3-(1-methyl-1H-benzo[d]imidazol-2-yl)azetidin-1-yl)pyrimidin-4-yl)-1H-1,2,4-triazol-5-yl)ethanol]: the Ki is 1 nM.

Regarding `Cc1nc(N2CC(c3nc4ccccc4n3C)C2)cc(-n2nc(C)nc2C(O)CC(F)(F)F)n1` (centres unmarked) [Example 7, 3,3,3-trifluoro-1-(3-methyl-1-(2-methyl-6-(3-(1-methyl-1H-benzo[d]imidazol-2-yl)azetidin-1-yl)pyrimidin-4-yl)-1H-1,2,4-triazol-5-yl)propan-1-ol], the Ki was found to be 3.2 nM.

As for `Cc1nc(C(C)O)n(-c2cc(N3CC(c4nc5ccccc5n4C)C3)nc(C(F)(F)F)n2)n1` (single isomer, unassigned) [Example 8b, 1-(3-methyl-1-(6-(3-(1-methyl-1H-benzo[d]imidazol-2-yl)azetidin-1-yl)-2-(trifluoromethyl)pyrimidin-4-yl)-1H-1,2,4-triazol-5-yl)ethanol], the Ki stood at 1 nM.

As for `Cc1nc(N2CC(c3nc4ccccc4n3C)C2)cc(-n2nc(C)nc2C(O)C(C)C)n1` (single isomer, unassigned) [Example 5a, 2-methyl-1-(3-methyl-1-(2-methyl-6-(3-(1-methyl-1H-benzo[d]imidazol-2-yl)azetidin-1-yl)pyrimidin-4-yl)-1H-1,2,4-triazol-5-yl)propan-1-ol], the Ki was determined as 0.34 nM.

`Cc1nc(N2CC(c3nc4ccccc4n3C)C2)cc(-n2nc(C)nc2C(O)C2CC2)n1` (centres unmarked) [Example 6, cyclopropyl(3-methyl-1-(2-methyl-6-(3-(1-methyl-1H-benzo[d]imidazol-2-yl)azetidin-1-yl)pyrimidin-4-yl)-1H-1,2,4-triazol-5-yl)methanol]: the Ki came to 0.36 nM.

On to `CCC(O)c1nc(C)nn1-c1cc(N2CC(c3nc4ccccc4n3C)C2)nc(C)n1` (centres unmarked) [Example 4, 1-(3-methyl-1-(2-methyl-6-(3-(1-methyl-1H-benzo[d]imidazol-2-yl)azetidin-1-yl)pyrimidin-4-yl)-1H-1,2,4-triazol-5-yl)propan-1-ol], for which the Ki was found to be 0.51 nM.

In the case of `Cc1nc([C@@H]2C[C@H]2c2nc3ccccc3n2C)cc(-n2nc(C)nc2[C@@H](O)c2ccccc2)n1` [Example 16, (S)-(3-methyl-1-(2-methyl-6-((1R,2R)-2-(1-methyl-1H-benzo[d]imidazol-2-yl)cyclopropyl)pyrimidin-4-yl)-1H-1,2,4-triazol-5-yl)(phenyl)methanol], the Ki came out at 0.62 nM.

Consider `Cc1nc(N2CC(c3nc4ccccc4n3C)C2)cc(-n2nc(C)nc2C(O)C2CC2)n1` (single isomer, unassigned) [Example 6b, cyclopropyl(3-methyl-1-(2-methyl-6-(3-(1-methyl-1H-benzo[d]imidazol-2-yl)azetidin-1-yl)pyrimidin-4-yl)-1H-1,2,4-triazol-5-yl)methanol], for which the Ki was determined as 2.6 nM.

With `Cc1nc(C2C[C@H]2c2nc3ccccc3n2C)cc(-n2nc(C)nc2C(O)C(F)(F)F)n1` (single isomer, unassigned) [Example 20a], the Ki stood at 0.58 nM.

Take `Cc1nc([C@H](C)O)n(-c2cc([C@@H]3C[C@H]3c3nc4ccccc4n3C)nc(C3CC3)n2)n1` [Example 18, (S)-1-(1-(2-cyclopropyl-6-((1R,2R)-2-(1-methyl-1H-benzo[d]imidazol-2-yl)cyclopropyl)pyrimidin-4-yl)-3-methyl-1H-1,2,4-triazol-5-yl)ethanol]: the Ki came to 0.36 nM.

As to `Cc1nc([C@@H]2C[C@H]2c2nc3ccccc3n2C)cc(-n2nc(C)nc2[C@H](O)c2ccccc2)n1` [Example 15, (R)-(3-methyl-1-(2-methyl-6-((1R,2R)-2-(1-methyl-1H-benzo[d]imidazol-2-yl)cyclopropyl)pyrimidin-4-yl)-1H-1,2,4-triazol-5-yl)(phenyl)methanol], the Ki was found to be 0.09 nM.

For `CCC(O)c1nc(C)nn1-c1cc(N2CC(c3nc4ccccc4n3C)C2)nc(C)n1` (single isomer, unassigned) [Example 4a, 1-(3-methyl-1-(2-methyl-6-(3-(1-methyl-1H-benzo[d]imidazol-2-yl)azetidin-1-yl)pyrimidin-4-yl)-1H-1,2,4-triazol-5-yl)propan-1-ol], the Ki turned out to be 1.8 nM.

Turning to `Cc1nc(C(C)O)n(-c2cc(N3CC(c4nc5ccccc5n4C)C3)nc(C(F)(F)F)n2)n1` (centres unmarked) [Example 8, 1-(3-methyl-1-(6-(3-(1-methyl-1H-benzo[d]imidazol-2-yl)azetidin-1-yl)-2-(trifluoromethyl)pyrimidin-4-yl)-1H-1,2,4-triazol-5-yl)ethanol], the Ki stood at 0.83 nM.

For the molecule `Cc1nc(C2C[C@H]2c2nc3ccccc3n2C)cc(-n2nc(C)nc2C(O)C(F)(F)F)n1` (stereo partly drawn) [Example 20, 2,2,2-trifluoro-1-(3-methyl-1-(2-methyl-6-((1R,2R)-2-(1-methyl-1H-benzo[d]imidazol-2-yl)cyclopropyl)pyrimidin-4-yl)-1H-1,2,4-triazol-5-yl)ethanol], the Ki was 0.55 nM.

Turning to `Cc1nc([C@H](C)O)n(-c2cc([C@@H]3C[C@H]3c3nc4ccccc4n3C)nc(C(F)(F)F)n2)n1` [Example 17, (S)-1-(3-methyl-1-(6-((1R,2R)-2-(1-methyl-1H-benzo[d]imidazol-2-yl)cyclopropyl)-2-(trifluoromethyl)pyrimidin-4-yl)-1H-1,2,4-triazol-5-yl)ethanol], the Ki is 2.8 nM.

Take `Cc1nc(N2CC(c3nc4ccccc4n3C)C2)cc(-n2nc(C)nc2C(O)CC(F)(F)F)n1` (single isomer, unassigned) [Example 7a, 3,3,3-trifluoro-1-(3-methyl-1-(2-methyl-6-(3-(1-methyl-1H-benzo[d]imidazol-2-yl)azetidin-1-yl)pyrimidin-4-yl)-1H-1,2,4-triazol-5-yl)propan-1-ol]: the Ki is 4.5 nM.
